Earlier results, collected in patent US20040209811A1, “Oral prohylactic agent against viral infection” (Chuang-Chun Chiueh, priority 2003, published 2004).

What was measured:
enterovirus = details: full prevention of infection; protected cells from viral invasion and pathological changes
cells = details: at >0.3 μM concentration

phycocyanin
concentration that could fully prevent enteroviral infection (enterovirus): > 0.3 µM | toxicity to cells (cells): non-toxic to cells | concentration found to prevent the infection of influenza viruses (influenza viruses): > 0.04 µM
